Measured values as given in PubChem BioAssay AID1259408 (Genetic Toxicology Data Bank (GENE-TOX), 2018).
Activity calls are given as the source filed them. How the calls were made is not given here.

Test system: GENE-TOX genotoxicity assays, various organisms and cells
Test: GENE-TOX mutagenicity studies
Settings: for call: Assay Type: In vivo carcinogenicity studies
[1] = Species/Cell Type: Mammalian polychromatic erythrocytes, Assay Type: Micronucleus test, chromosome aberrations, Assay Code: MNT+, Evaluation Type: Evaluation B (Post-1980)
[2] = Species/Cell Type: Mammalian polychromatic erythrocytes, Assay Type: Micronucleus test, chromosome aberrations, Assay Code: MNTT, Evaluation Type: Evaluation A (Pre-1980)
[3] = Species/Cell Type: Nonhuman, Assay Type: Sister-chromatid exchange (SCE) in vivo, Assay Code: SC3-, Evaluation Type: Evaluation B (Post-1980)
[4] = Species/Cell Type: Mouse, Sex: Male, Assay Type: Sperm morphology, Assay Code: SPI-, Evaluation Type: Evaluation A (Pre-1980)
[5] = Species/Cell Type: Salmonella typhimurium (one or more of the five standard strains: TA98, TA100, TA1535, TA1537, and TA1538), Assay Type: Histidine reverse gene mutation, Ames assay, Assay Code: SALT, Evaluation Type: Evaluation A (Pre-1980)
[6] = Species/Cell Type: Escherichia coli polA (W3119 vs P3478), Assay Type: Rec-assay, DNA effects (bacterial DNA repair), Assay Code: RE1+, Evaluation Type: Evaluation A (Pre-1980)
[7] = Species/Cell Type: Nonhuman, Assay Type: Sister-chromatid exchange (SCE) in vitro, Assay Code: SC2T, Evaluation Type: Evaluation B (Post-1980)
[8] = Species/Cell Type: Nonhuman, Assay Code: CCGT, Evaluation Type: Evaluation A (Pre-1980)
[9] = Species/Cell Type: Salmonella typhimurium (one or more of the five standard strains: TA98, TA100, TA1535, TA1537, and TA1538), Assay Type: Histidine reverse gene mutation, Ames assay, Assay Code: SAL+, Evaluation Type: Evaluation A (Pre-1980)
[10] = Species/Cell Type: Syrian hamster embryo (SHE) cells, Assay Type: Cell transformation, clonal assay, Assay Code: CTC+, Evaluation Type: Evaluation A (Pre-1980)

`COc1cc2c(c(OC)c1OC)-c1ccc(OC)c(=O)cc1[C@@H](NC(C)=O)CC2` was tested, and the mutagenic call (Species/Cell Type: Drosophila melanogaster, Assay Type: Aneuploidy, sex chromosome gain, chromosome aberrations, Assay Code: DAG+F, Evaluation Type: Evaluation A (Pre-1980)) was “active; positive”, the mutagenic call (Species/Cell Type: Drosophila melanogaster, Assay Type: Aneuploidy, whole sex chromosome loss, chromosome aberrations, Assay Code: DAC+F, Evaluation Type: Evaluation A (Pre-1980)) was “active; positive” and the mutagenic call (Species/Cell Type: Glycine max (soybean), Assay Type: Gene mutation, Assay Code: GLM+, Evaluation Type: Evaluation A (Pre-1980)) was “active; positive”. The mutagenic call (Species/Cell Type: Human, Sex: Male, Assay Type: Sperm morphology, Assay Code: SPHT, Evaluation Type: Evaluation A (Pre-1980)) was “no conclusion”, the mutagenic call (Species/Cell Type: Mammalian cell culture, nonhuman, Assay Type: Micronucleus test in vitro, chromosome aberrations, Assay Code: MN&+, Evaluation Type: Evaluation A (Pre-1980)) was “active; positive” and the mutagenic call [1] was “active; positive”. The mutagenic call [2] was “no conclusion”, the mutagenic call (Species/Cell Type: Mouse, Sex: Male, Assay Type: Sperm morphology, Assay Code: SPI+, Evaluation Type: Evaluation A (Pre-1980)) was “active; positive” and the mutagenic call (Species/Cell Type: Neurospora crassa, Assay Type: Aneuploidy, chromosome aberrations, Assay Code: NEN-, Evaluation Type: Evaluation A (Pre-1980)) was “inactive; negative”. The mutagenic call [3] was “inactive; negative” and the mutagenic call (Species/Cell Type: Plant, Assay Type: Micronucleus test, chromosome aberrations, Assay Code: MNP+, Evaluation Type: Evaluation A (Pre-1980)) was “active; positive”.

For `c1ccc2c(c1)ncn2CN1CCCCC1`, the mutagenic call (Species/Cell Type: Arabidopsis species, Assay Type: Gene mutation, Assay Code: ARM-, Evaluation Type: Evaluation A (Pre-1980)) was “inactive; negative”.

For `Nc1ccc(F)cc1`, the mutagenic call [4] was “inactive; negative”.

In the case of `C=CCN(CC=C)N=O`, the mutagenic call (Species/Cell Type: Salmonella typhimurium (one or more of the five standard strains: TA98, TA100, TA1535, TA1537, and TA1538), Assay Type: Histidine reverse gene mutation, Ames assay, Assay Code: SAL+*, Activation: With metabolic activation, Evaluation Type: Evaluation A (Pre-1980)) is reported as “active; positive”.

For `CC(COc1ccc(C(C)(C)C)cc1)OS(=O)OCCCl` (configuration not stated), the call (Species/Cell Type: Nonhuman, Assay Code: CCG+, Evaluation Type: Evaluation A (Pre-1980)) was “active; positive”.

`COc1cc(CNC(=O)CCCC/C=C/C(C)C)ccc1O` was tested, and the mutagenic call (Species/Cell Type: Mammalian polychromatic erythrocytes, Assay Type: Micronucleus test, chromosome aberrations, Assay Code: MNT+U, Dose Response: Unconfirmed positive response, Evaluation Type: Evaluation B (Post-1980)) was “active; positive”.

In the case of `CCCNC(=O)NS(=O)(=O)c1ccc(Cl)cc1`, the mutagenic call (Species/Cell Type: Human lymphocytes, Assay Type: Sister-chromatid exchange (SCE) in vivo, Assay Code: SCY+, Evaluation Type: Evaluation B (Post-1980)) is reported as “active; positive”, the mutagenic call (Species/Cell Type: Mammalian polychromatic erythrocytes, Assay Type: Micronucleus test, chromosome aberrations, Assay Code: MNT+, Evaluation Type: Evaluation A (Pre-1980)) is reported as “active; positive” and the mutagenic call (Species/Cell Type: Nonhuman, Assay Type: Sister-chromatid exchange (SCE) in vitro, Assay Code: SC2+D, Dose Response: With dose response, Evaluation Type: Evaluation A (Pre-1980)) is reported as “active; positive”. The mutagenic call (Species/Cell Type: Nonhuman, Assay Type: Sister-chromatid exchange (SCE) in vivo, Assay Code: SC3+D, Dose Response: With dose response, Evaluation Type: Evaluation B (Post-1980)) was “active; positive”.

`O=C(O)C(Cl)(Cl)Cl` was tested, and the mutagenic call [1] was “active; positive”, the mutagenic call [5] was “no conclusion” and the mutagenic call (Species/Cell Type: Vicia faba, Assay Type: Chromosome aberrations, Assay Code: VIC+, Evaluation Type: Evaluation A (Pre-1980)) was “active; positive”.

In the case of `Cc1ncc(COP(=O)(O)O)c(C=O)c1O`, the mutagenic call (Species/Cell Type: Human lymphocytes, Assay Type: Sister-chromatid exchange (SCE) in vitro, Assay Code: SCLT, Evaluation Type: Evaluation B (Post-1980)) is reported as “no conclusion” and the mutagenic call (Species/Cell Type: Human, Assay Type: Sister-chromatid exchange (SCE) in vitro, Assay Code: SC1T, Evaluation Type: Evaluation B (Post-1980)) is reported as “no conclusion”.

In the case of `CCOP(=S)(OCC)Oc1nc(Cl)c(Cl)cc1Cl`, the mutagenic call (Species/Cell Type: Drosophila melanogaster, Assay Type: Sex-linked recessive lethal gene mutation, Assay Code: SRLT, Evaluation Type: Evaluation A (Pre-1980)) is reported as “no conclusion”, the mutagenic call [6] is reported as “active; positive” and the mutagenic call (Species/Cell Type: Human diploid fibroblasts, Assay Type: Unscheduled DNA synthesis (UDS) in vitro, DNA effects, Assay Code: UDH-, Evaluation Type: Evaluation A (Pre-1980)) is reported as “inactive; negative”. For the same molecule, the mutagenic call (Species/Cell Type: Human, Assay Type: Sister-chromatid exchange (SCE) in vitro, Assay Code: SC1+D, Dose Response: With dose response, Evaluation Type: Evaluation B (Post-1980)) was “active; positive”, the mutagenic call [7] was “no conclusion” and the mutagenic call [3] was “inactive; negative”. For the same molecule, the mutagenic call (Species/Cell Type: Saccharomyces cerevisiae, Assay Type: Mitotic recombination or gene conversion, Assay Code: YEH-, Evaluation Type: Evaluation A (Pre-1980)) was “inactive; negative” and the mutagenic call [5] was “no conclusion”.

With `O=S1(=O)CCCCO1` the mutagenic call [6] was “active; positive”, the call [8] was “no conclusion” and the mutagenic call (Species/Cell Type: Saccharomyces cerevisiae, Assay Type: Mitotic recombination or gene conversion, Assay Code: YEH+, Evaluation Type: Evaluation A (Pre-1980)) was “active; positive”. For the same molecule, the mutagenic call [9] was “active; positive”, the mutagenic call (Species/Cell Type: Salmonella typhimurium, Assay Type: Forward and reverse gene mutation, host-mediated assay, Assay Code: HMA+, Evaluation Type: Evaluation A (Pre-1980)) was “active; positive” and the mutagenic call (Species/Cell Type: Schizosaccharomyces pombe, Assay Type: Reverse gene mutation, Assay Code: YEZ+, Evaluation Type: Evaluation A (Pre-1980)) was “active; positive”. For the same molecule, the mutagenic call [10] was “active; positive”.

For `[N-]=[N+]=CC(=O)NCC(N)=O`, the mutagenic call (Species/Cell Type: Nonhuman, Assay Type: Sister-chromatid exchange (SCE) in vitro, Assay Code: SC2+D, Dose Response: With dose response, Evaluation Type: Evaluation B (Post-1980)) was “active; positive” and the mutagenic call [9] was “active; positive”.

`Oc1cc2cc3ccccc3cc2c2ccccc12` was tested, and the mutagenic call (Species/Cell Type: Chinese hamster lung (V79) cells, Assay Type: Forward gene mutation at the HPRT or ouabain locus, Assay Code: V79+, Evaluation Type: Evaluation A (Pre-1980)) was “active; positive”, the mutagenic call (Species/Cell Type: Mouse prostate cells, Assay Type: Cell transformation, Assay Code: CTM-, Evaluation Type: Evaluation A (Pre-1980)) was “inactive; negative” and the mutagenic call [10] was “active; positive”.

In the case of `O=C(NO)c1ccccc1`, the mutagenic call [9] is reported as “active; positive”.

With `[Cl][Ir-2]([Cl])([Cl])([Cl])([Cl])[Cl]` the mutagenic call (Species/Cell Type: Bacillus subtilis (H17 vs M45), Assay Type: Rec-assay, spot test, DNA effects (bacterial DNA repair), Assay Code: REW+, Evaluation Type: Evaluation A (Pre-1980)) was “active; positive”.

For `c1cc2ccc3cccc4ccc(c1)c2c34`, the mutagenic call (Species/Cell Type: Chinese hamster lung (V79) cells, Assay Type: Forward gene mutation at the HPRT or ouabain locus, Assay Code: V79-*, Activation: With metabolic activation, Evaluation Type: Evaluation A (Pre-1980)) was “inactive; negative”, the mutagenic call (Species/Cell Type: Chinese hamster lung (V79) cells, Assay Type: Forward gene mutation, host-mediated assay, Assay Code: HMG-, Evaluation Type: Evaluation A (Pre-1980)) was “inactive; negative” and the mutagenic call (Species/Cell Type: Fischer rat embryo (RLV/1706) cells, Assay Type: Cell transformation, viral enhanced, Assay Code: CTR-, Evaluation Type: Evaluation A (Pre-1980)) was “inactive; negative”. The mutagenic call (Species/Cell Type: Human diploid fibroblasts, Assay Type: Unscheduled DNA synthesis (UDS) in vitro, DNA effects, Assay Code: UDH-*, Activation: With metabolic activation, Evaluation Type: Evaluation A (Pre-1980)) was “inactive; negative”, the mutagenic call [2] was “no conclusion” and the mutagenic call (Species/Cell Type: Mouse (BALB/c-3T3) cells, Assay Type: Cell transformation, Assay Code: CTB-, Evaluation Type: Evaluation A (Pre-1980)) was “inactive; negative”. The mutagenic call (Species/Cell Type: Mouse embryo (AKR/ME) cells, Assay Type: Cell transformation, Assay Code: CTK-, Evaluation Type: Evaluation A (Pre-1980)) was “inactive; negative”, the mutagenic call [4] was “inactive; negative” and the mutagenic call (Species/Cell Type: Nonhuman, Assay Type: Chromosome aberrations in vitro, Assay Code: CY&-, Evaluation Type: Evaluation A (Pre-1980)) was “inactive; negative”. For the same molecule, the call [8] was “no conclusion”, the mutagenic call (Species/Cell Type: Nonhuman, Assay Type: Sister-chromatid exchange (SCE) in vitro, Assay Code: SC2+, Evaluation Type: Evaluation B (Post-1980)) was “active; positive” and the mutagenic call (Species/Cell Type: Nonhuman, Assay Type: Sister-chromatid exchange (SCE) in vitro, Assay Code: SC2T, Evaluation Type: Evaluation A (Pre-1980)) was “no conclusion”. The mutagenic call (Species/Cell Type: Nonhuman, Assay Type: Sister-chromatid exchange (SCE) in vivo, Assay Code: SC3-, Evaluation Type: Evaluation A (Pre-1980)) was “inactive; negative”, the mutagenic call (Species/Cell Type: Salmonella typhimurium (one or more of the five standard strains: TA98, TA100, TA1535, TA1537, and TA1538), Assay Type: Histidine reverse gene mutation, Ames assay, Assay Code: SAL-, Evaluation Type: Evaluation A (Pre-1980)) was “inactive; negative” and the mutagenic call (Species/Cell Type: Syrian hamster embryo (SHE) cells, Assay Type: Cell transformation, clonal assay, Assay Code: CTC-, Evaluation Type: Evaluation A (Pre-1980)) was “inactive; negative”. The mutagenic call (Species/Cell Type: Tradescantia species, Assay Type: Gene mutation, Assay Code: TRM+D, Dose Response: With dose response, Evaluation Type: Evaluation A (Pre-1980)) was “active; positive”.

`Cc1n(C)c([N+](=O)[O-])c[n+]1C` was tested, and the mutagenic call [5] was “no conclusion”.

For `ClCC1OC(CCl)OC(CCl)O1` (configuration not stated), the mutagenic call [9] was “active; positive”.

With `C[C@@H]1O[C@@H](OC[C@H]2O[C@@H](Oc3c(-c4ccc(OCCO)c(OCCO)c4)oc4cc(OCCO)cc(O)c4c3=O)[C@H](O)[C@@H](O)[C@@H]2O)[C@H](O)[C@H](O)[C@H]1O` the mutagenic call (Species/Cell Type: Mammalian polychromatic erythrocytes, Assay Type: Micronucleus test, chromosome aberrations, Assay Code: MNT-, Evaluation Type: Evaluation B (Post-1980)) was “inactive; negative”.

`COC1OC[C@@H](C(C)=O)[C@H]1C` (some centres not stated) was tested, and the mutagenic call [7] was “no conclusion”.
